According to the supplement of paper PMC10307832:

Columns and labels:
Test in all cases: relative viability (nuclei count vs DMSO), 5 days (fraction); higher = more cells survive
Shikonin = compound: CC(C)=CC[C@@H](O)C1=CC(=O)c2c(O)ccc(O)c2C1=O [Shikonin]
Summary of the method: (§1)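 Lung cancer cell lines in 1536-well plates were kept overnight at 37 °C, then pinned with five library-drug doses (not always all listed) spaced by √10 on vehicle-anchored plates. After 5 days without medium change, cells were fixed, permeabilised and Hoechst-stained in one step, imaged at 4×, and nuclei were counted with MetaXpress. Viability is treated-well nuclei divided by vehicle-well nuclei, taken as the median over plates. Plates passed only with control CV below 25% and at least one doubling.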

[1] = compound: CC(C)N(CCCNC(=O)Nc1ccc(C(C)(C)C)cc1)C[C@H]1O[C@@H](n2ccc3c(N)ncnc32)[C@H](O)[C@@H]1O
Summary of the method: as §1

Shikonin + Luminespib = compound: CC(C)=CC[C@@H](O)C1=CC(=O)c2c(O)ccc(O)c2C1=O [Shikonin] + CCNC(=O)c1noc(-c2cc(C(C)C)c(O)cc2O)c1-c1ccc(CN2CCOCC2)cc1 [Luminespib] (partner 0.01 µM)
Summary of the method: (§2)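 The day after seeding in 1536-well plates, lung cancer cell lines were treated by pin tool with a single drug, or with a fixed anchor-drug dose together with five library-drug doses (not always all listed) in √10 steps. After 5 days, a combined fix-and-stain solution (final 0.05% Triton X-100, 1% formaldehyde, 1 ug/ml Hoechst) was added. Nuclei counted on 4× images gave relative viability as treated counts over vehicle counts, reported as the median of duplicate plates.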

Shikonin + Foretinib = compound: CC(C)=CC[C@@H](O)C1=CC(=O)c2c(O)ccc(O)c2C1=O [Shikonin] + COc1cc2c(Oc3ccc(NC(=O)C4(C(=O)Nc5ccc(F)cc5)CC4)cc3F)ccnc2cc1OCCCN1CCOCC1 [Foretinib] (partner 0.25 µM)
Summary of the method: as §2

Shikonin + OSI-027 = compound: CC(C)=CC[C@@H](O)C1=CC(=O)c2c(O)ccc(O)c2C1=O [Shikonin] + COc1cccc2cc(-c3nc([C@H]4CC[C@H](C(=O)O)CC4)n4ncnc(N)c34)[nH]c12 [OSI-027] (partner 0.5 µM)
Summary of the method: as §2

Shikonin + Tozasertib = compound: CC(C)=CC[C@@H](O)C1=CC(=O)c2c(O)ccc(O)c2C1=O [Shikonin] + Cc1cc(Nc2cc(N3CCN(C)CC3)nc(Sc3ccc(NC(=O)C4CC4)cc3)n2)n[nH]1 [Tozasertib] (partner 0.1 µM)
Summary of the method: as §2

Shikonin + Dasatinib = compound: CC(C)=CC[C@@H](O)C1=CC(=O)c2c(O)ccc(O)c2C1=O [Shikonin] + Cc1nc(Nc2ncc(C(=O)Nc3c(C)cccc3Cl)s2)cc(N2CCN(CCO)CC2)n1 [Dasatinib] (partner 0.075 µM)
Summary of the method: as §2

Shikonin + Phenformin = compound: CC(C)=CC[C@@H](O)C1=CC(=O)c2c(O)ccc(O)c2C1=O [Shikonin] + N=C(N)NC(=N)NCCc1ccccc1 [Phenformin] (partner 250 µM)
Summary of the method: as §2

[2] = compound: CC(C)N(CCCNC(=O)Nc1ccc(C(C)(C)C)cc1)C[C@H]1O[C@@H](n2ccc3c(N)ncnc32)[C@H](O)[C@@H]1O + CCNC(=O)c1noc(-c2cc(C(C)C)c(O)cc2O)c1-c1ccc(CN2CCOCC2)cc1 [Luminespib] (partner 0.01 µM)
Summary of the method: as §2

[3] = compound: CC(C)N(CCCNC(=O)Nc1ccc(C(C)(C)C)cc1)C[C@H]1O[C@@H](n2ccc3c(N)ncnc32)[C@H](O)[C@@H]1O + COc1cc2c(Oc3ccc(NC(=O)C4(C(=O)Nc5ccc(F)cc5)CC4)cc3F)ccnc2cc1OCCCN1CCOCC1 [Foretinib] (partner 0.25 µM)
Summary of the method: as §2

[4] = compound: CC(C)N(CCCNC(=O)Nc1ccc(C(C)(C)C)cc1)C[C@H]1O[C@@H](n2ccc3c(N)ncnc32)[C@H](O)[C@@H]1O + COc1cccc2cc(-c3nc([C@H]4CC[C@H](C(=O)O)CC4)n4ncnc(N)c34)[nH]c12 [OSI-027] (partner 0.5 µM)
Summary of the method: as §2

[5] = compound: CC(C)N(CCCNC(=O)Nc1ccc(C(C)(C)C)cc1)C[C@H]1O[C@@H](n2ccc3c(N)ncnc32)[C@H](O)[C@@H]1O + Cc1cc(Nc2cc(N3CCN(C)CC3)nc(Sc3ccc(NC(=O)C4CC4)cc3)n2)n[nH]1 [Tozasertib] (partner 0.1 µM)
Summary of the method: as §2

[6] = compound: CC(C)N(CCCNC(=O)Nc1ccc(C(C)(C)C)cc1)C[C@H]1O[C@@H](n2ccc3c(N)ncnc32)[C@H](O)[C@@H]1O + Cc1nc(Nc2ncc(C(=O)Nc3c(C)cccc3Cl)s2)cc(N2CCN(CCO)CC2)n1 [Dasatinib] (partner 0.075 µM)
Summary of the method: as §2

[7] = compound: CC(C)N(CCCNC(=O)Nc1ccc(C(C)(C)C)cc1)C[C@H]1O[C@@H](n2ccc3c(N)ncnc32)[C@H](O)[C@@H]1O + N=C(N)NC(=N)NCCc1ccccc1 [Phenformin] (partner 250 µM)
Summary of the method: as §2

NCI-H1623
relative viability (Shikonin; 0.01 µM): 0.934 | relative viability (Shikonin; 0.1 µM): 0.817 | relative viability (Shikonin; 0.3162 µM): 1.08 | relative viability (Shikonin; 1 µM): 1.07 | relative viability ([1]; 0.08 µM): 0.947 | relative viability ([1]; 0.253 µM): 0.968 | relative viability ([1]; 0.8 µM): 0.934 | relative viability ([1]; 2.53 µM): 0.911 | relative viability ([1]; 8 µM): 1.01 | relative viability (Shikonin + Luminespib; first compound 0.01 µM): 0.513 | relative viability (Shikonin + Luminespib; first compound 0.1 µM): 0.552 | relative viability (Shikonin + Luminespib; first compound 0.3162 µM): 0.609 | relative viability (Shikonin + Luminespib; first compound 1 µM): 0.368 | relative viability (Shikonin + Foretinib; first compound 0.01 µM): 0.874 | relative viability (Shikonin + Foretinib; first compound 0.1 µM): 0.866 | relative viability (Shikonin + Foretinib; first compound 0.3162 µM): 1.06 | relative viability (Shikonin + Foretinib; first compound 1 µM): 0.917 | relative viability (Shikonin + OSI-027; first compound 0.01 µM): 0.397 | relative viability (Shikonin + OSI-027; first compound 0.1 µM): 0.428 | relative viability (Shikonin + OSI-027; first compound 0.3162 µM): 0.414 | relative viability (Shikonin + OSI-027; first compound 1 µM): 0.393 | relative viability (Shikonin + Tozasertib; first compound 0.01 µM): 0.423 | relative viability (Shikonin + Tozasertib; first compound 0.1 µM): 0.472 | relative viability (Shikonin + Tozasertib; first compound 0.3162 µM): 0.441 | relative viability (Shikonin + Tozasertib; first compound 1 µM): 0.449 | relative viability (Shikonin + Dasatinib; first compound 0.01 µM): 0.475 | relative viability (Shikonin + Dasatinib; first compound 0.1 µM): 0.541 | relative viability (Shikonin + Dasatinib; first compound 0.3162 µM): 0.569 | relative viability (Shikonin + Dasatinib; first compound 1 µM): 0.635 | relative viability (Shikonin + Phenformin; first compound 0.01 µM): 0.551 | relative viability (Shikonin + Phenformin; first compound 0.1 µM): 0.601 | relative viability (Shikonin + Phenformin; first compound 0.3162 µM): 0.592 | relative viability (Shikonin + Phenformin; first compound 1 µM): 0.603 | relative viability ([2]; first compound 0.08 µM): 0.495 | relative viability ([2]; first compound 0.253 µM): 0.472 | relative viability ([2]; first compound 0.8 µM): 0.394 | relative viability ([2]; first compound 2.53 µM): 0.589 | relative viability ([2]; first compound 8 µM): 0.547 | relative viability ([3]; first compound 0.08 µM): 0.836 | relative viability ([3]; first compound 0.253 µM): 0.952 | relative viability ([3]; first compound 0.8 µM): 0.795 | relative viability ([3]; first compound 2.53 µM): 0.83 | relative viability ([3]; first compound 8 µM): 0.801 | relative viability ([4]; first compound 0.08 µM): 0.446 | relative viability ([4]; first compound 0.253 µM): 0.469 | relative viability ([4]; first compound 0.8 µM): 0.529 | relative viability ([4]; first compound 2.53 µM): 0.422 | relative viability ([4]; first compound 8 µM): 0.437 | relative viability ([5]; first compound 0.08 µM): 0.426 | relative viability ([5]; first compound 0.253 µM): 0.452 | relative viability ([5]; first compound 0.8 µM): 0.414 | relative viability ([5]; first compound 2.53 µM): 0.408 | relative viability ([5]; first compound 8 µM): 0.45 | relative viability ([6]; first compound 0.08 µM): 0.562 | relative viability ([6]; first compound 0.253 µM): 0.563 | relative viability ([6]; first compound 0.8 µM): 0.571 | relative viability ([6]; first compound 2.53 µM): 0.537 | relative viability ([6]; first compound 8 µM): 0.521 | relative viability ([7]; first compound 0.08 µM): 0.547 | relative viability ([7]; first compound 0.253 µM): 0.666 | relative viability ([7]; first compound 0.8 µM): 0.597 | relative viability ([7]; first compound 2.53 µM): 0.607 | relative viability ([7]; first compound 8 µM): 0.565
